We go through 99 molecules from ChEMBL document CHEMBL3507680, “University of Dundee, Gates Library screen for HepG2 cell viability”.

Structures are written as SMILES.

A short description of this series: Human HepG2 cell viability assay in 384 well format. Also noted: dose 125 nL, time 70.5 hour; concentration not given beside the values. It is filed as toxicity, cell-based. The conditions noted are these: HepG2 cells, read-out: Inhibition.
In the case of `CN1CCN(C[C@H]2CC[C@@H](Cc3ccc(CN4CCCC4)cc3)O2)CC1`, the cytotoxicity at 70.5 h is -6.45%.
For the molecule `Cc1noc(C)c1CN1CCC(c2nnc(Cn3cccn3)n2C)CC1`, the cytotoxicity at 70.5 h is -6.21%.
As for `CC(C)CN(Cc1ccc(O)c(C(=O)O)c1)Cc1ccccn1`, the cytotoxicity at 70.5 h came to 5.47%.
Consider `c1coc(-c2nc(CNC3CCCNC3)no2)c1` (centres undefined), for which the cytotoxicity at 70.5 h amounted to 1.79%.
As to `Cc1nc(NC(=O)N2CCCC(N(C)C)C2)nn1C` (centres undefined), the cytotoxicity at 70.5 h was 31.8%.
Turning to `Cc1[nH]c(=O)[nH]c(=O)c1CN1CCCC(CCc2ccc(F)c(F)c2)C1` (centres undefined), the cytotoxicity at 70.5 h is -10.6%.
Consider `COCC1CCN(S(=O)(=O)N2C[C@@H](C)[C@@](C)(O)C2)CC1`, for which the cytotoxicity at 70.5 h is -0.99%.
As to `CC[C@@]1(O)CCN(C(=O)c2ccc(-c3ccco3)cc2)C[C@H]1O`, the cytotoxicity at 70.5 h is -5.37%.
Take `CCn1ccnc1C1CCN(Cc2c(F)cccc2F)CC1`: the cytotoxicity at 70.5 h stood at 3.09%.
Consider `CCOc1ccccc1-n1c(-c2cn(CC)nc2C)n[nH]c1=O`, for which the cytotoxicity at 70.5 h is -4.81%.
Turning to `CN(CCN1CCCCCC1)C(=O)c1c(O)cccc1O`, the cytotoxicity at 70.5 h was -2.54%.
The result for `CCc1cnc(N2CCCOC(CN3CCCC3)C2)nc1` (centres undefined) reads 7.5%; that for `OCCNc1cc(N2CCN(Cc3ccccc3)C(CCO)C2)ncn1` (centres undefined), -7.07%; that for `Cc1cc(CN(C)CC2CCCN(CCc3ccc(Cl)cc3)C2)[nH]n1` (centres undefined), -4.86%.
Turning to `CCOCC(O)c1nc2c([nH]1)CC(C)(C)CNC2=O` (centres undefined), the cytotoxicity at 70.5 h was -11.8%.
The result for `CC(=O)N1C[C@@H]2CC[C@H](C1)N(Cc1ccc(Cn3cccn3)cc1)C2` reads -19.2%; that for `CN(CCCc1nccn1C)C(=O)C1CCN(C(=O)C2CCC2)CC1`, 3.53%.
With `CCN(Cc1ccccc1)C(=O)CCN1C[C@@H](C(=O)O)[C@H](C2CC2)C1` the figure was -8.23%; with `CCCc1ccc(OC23CCCN(CC2)C3)c(OC)c1` (centres undefined), -9.71%.
The result for `Cn1ncc(NC(=O)Cn2ccc(-c3ccc(F)cc3)n2)n1` reads 0.148%; that for `Cc1nccn1CCC1CCCCN1Cc1ccc(O)cc1Cl` (centres undefined), 15.6%; that for `Cc1cccc2sc(NC(=O)CN3CCCC(O)(CO)C3)nc12` (centres undefined), 11%.
For the molecule `O=C(NCc1cccnc1N1CCCC(O)C1)c1ccc2[nH]nnc2c1` (centres undefined), the cytotoxicity at 70.5 h was -25%.
With `C[C@@H]1CN(Cc2c[nH]c(CC3CCCC3)n2)CC[C@]1(C)O` the figure was -9.37%.
The result for `Fc1ccc(CN2CCCC3(CCN(Cc4ncc[nH]4)C3)C2)cc1F` (centres undefined) reads -0.549%; that for `COc1ccc(C(=O)C2CCCN(c3cc(C#N)ccn3)C2)cc1F` (centres undefined), -6.04%; that for `CN(C)[C@H]1CCCCN(Cc2ccccc2Cn2cccn2)C1`, 2.32%.
As for `COc1ccc(OC2CCN(C(=O)CCc3nc(Cl)n[nH]3)CC2)cc1`, the cytotoxicity at 70.5 h was -4.51%.
Consider `CCn1c(N)nc2cc(C(=O)N3CCCOCC3)cnc21`, for which the cytotoxicity at 70.5 h is -6.56%.
As for `Clc1cccc(C2CCN(c3ncnc4c3CCNC4)C2)c1` (centres undefined), the cytotoxicity at 70.5 h is -1.22%.
Consider `CCc1oc(C(=O)NCCc2cc(O)nc(C)n2)cc1CN1CCCC1`, for which the cytotoxicity at 70.5 h was -6.98%.
`Cc1csc2c(N3CCNC(C(=O)N4CCCC4)C3)ncnc12` (centres undefined): the cytotoxicity at 70.5 h was -7.34%.
On to `CCNC(=O)[C@@H]1C[C@H](N)CN1c1cc(CC)nc(N(C)C)n1`, for which the cytotoxicity at 70.5 h is -4.05%.
Turning to `O=C(CCN1CCCCO1)N1CC[C@H](O)[C@@H](O)C1`, the cytotoxicity at 70.5 h came out at 11.6%.
Take `CCc1cc(N[C@H](C(N)=O)C(C)C)n2nc(C)c(C)c2n1`: the cytotoxicity at 70.5 h is -6.29%.
Regarding `Cc1nn(C)cc1C(=O)N1CCCC(c2nccn2Cc2cscn2)C1` (centres undefined), the cytotoxicity at 70.5 h was -7.69%.
For the molecule `Cc1ocnc1C(=O)N1CCC2(CC1)c1nc[nH]c1CCN2CC(C)C`, the cytotoxicity at 70.5 h was determined as 27.1%.
With `O=S1(=O)C[C@@H]2[C@H](C1)N(Cc1nc3ccccc3[nH]1)CCN2CC1CC1` the figure was -5.06%.
On to `CCc1nc2c(N3CCC4(CC3)CNC(=O)C4)ncnc2o1`, for which the cytotoxicity at 70.5 h is -3.31%.
Take `CN(C)c1cccc(C(=O)N2C[C@H]3CC[C@@H]2CN(C(=O)C2CCC2)C3)c1`: the cytotoxicity at 70.5 h was found to be 0.254%.
Turning to `COCCCC1(CO)CCCN(C(=O)c2cnc3c(c2)CCCC3)C1` (centres undefined), the cytotoxicity at 70.5 h was -6.26%.
With `CNc1ncccc1CN1CCN2CCN(C)CC2C1` (centres undefined) the figure was -7.61%; with `COCCN(Cc1cccs1)c1nc(CCN)nc2ccccc12`, -9.93%.
On to `CCn1c(C2CCN(C(=O)c3cc(Cl)no3)CC2)nn(C)c1=O`, for which the cytotoxicity at 70.5 h amounted to 39%.
Take `O=C(Nc1ccc(F)cc1)N1CCC2(CCC(=O)N(C3CC3)C2)CC1`: the cytotoxicity at 70.5 h is -11.6%.
On to `FC(F)(F)C1CN(Cc2cccc(OCc3ccccn3)c2)CCO1` (centres undefined), for which the cytotoxicity at 70.5 h was 8.84%.
For `CC(C)[C@H]1CN(C(=O)CO)C[C@@H]1N(C)C`, the cytotoxicity at 70.5 h was -13.8%.
As for `Cc1cc(C(=O)N2CC[C@H](N3CCN(C)CC3)[C@H](CCCO)C2)n(C)n1`, the cytotoxicity at 70.5 h was -6.07%.
As to `Cc1c(Cl)cccc1S(=O)(=O)N1C[C@@H]2CC[C@H](C1)N(C)C2=O`, the cytotoxicity at 70.5 h came to 1.2%.
Consider `CCCc1nc(C(=O)NC(COC)c2ccnn2C)cs1` (centres undefined), for which the cytotoxicity at 70.5 h is -10.8%.
In the case of `CC(=O)N1CCc2c(nc(N(C)C)nc2NCCCn2ccnc2C)C1`, the cytotoxicity at 70.5 h was -4.2%.
`Nc1nnc(CCCNC(=O)c2ccc(C3CCCNC3)cc2)s1` (centres undefined): the cytotoxicity at 70.5 h is 8.02%.
As to `O=C1Nc2ccccc2C12CCCN(Cc1ccc3c(c1)OCCO3)C2` (centres undefined), the cytotoxicity at 70.5 h was -11.8%.
For the molecule `CCn1c(C)nnc1SCCNC(=O)c1sc(C(C)C)nc1C`, the cytotoxicity at 70.5 h was -7.2%.
`CC(C)OC(=O)N1C[C@H]2CC[C@@H]1CN(C(=O)c1ccccc1)C2`: the cytotoxicity at 70.5 h was -2.95%.
As to `COCC1(C(=O)N[C@H]2CN(c3ccnc(C)c3)C[C@@H]2C2CC2)CCC1`, the cytotoxicity at 70.5 h was -8.46%.
As for `COC(=O)CCC(=O)NCc1cccnc1N1CCc2ccccc2C1`, the cytotoxicity at 70.5 h was found to be 3.31%.
The result for `CN1CCC(CNC(=O)c2cccc(CN3CCCCCC3)c2)C1` (centres undefined) reads -5.88%; that for `CCNc1ncc(-c2cc(-c3ccn(C)c3)nc(N)c2C#N)cn1`, -11.6%; that for `COCCn1ccnc1CN1CCc2[nH]cnc2C1c1cccc(O)c1` (centres undefined), -14.3%.
The result for `CCCc1nnc(N2CCN(c3cccc(C)c3C)CC2)o1` reads -14.8%; that for `Cc1cncc(C2CCCN(C(=O)c3cccn3C)C2)n1` (centres undefined), -5.17%.
With `NC[C@H]1CC[C@H](C(NC(=O)c2ccccn2)c2ccccn2)CC1` (some centres undefined) the figure was -4.69%.
For the molecule `Cc1ccn(CCC(=O)N2CCOC(c3nc(-c4cccs4)no3)C2)n1` (centres undefined), the cytotoxicity at 70.5 h was -2.76%.
With `O=C(c1cnco1)N1CCCC(Cc2nccs2)C1` (centres undefined) the figure was -7.07%; with `C[C@]1(O)CCN(Cc2cncs2)C[C@@H]1Oc1cccc(F)c1`, -0.0777%; with `CCc1nccn1-c1cncc(C2CCCN2Cc2ccc(F)cc2)n1` (centres undefined), 36.1%.
On to `CC1CCCCN1Cc1ccc(-c2ccccc2C(=O)O)cc1` (centres undefined), for which the cytotoxicity at 70.5 h stood at 0.911%.
Turning to `COc1ncc(CN2CC[C@@](C)(O)[C@H](Oc3cccc(F)c3)C2)cn1`, the cytotoxicity at 70.5 h amounted to 5.46%.
As to `Cc1nc(CN2CCCC(NCc3ccc4c(c3)CCO4)C2)no1` (centres undefined), the cytotoxicity at 70.5 h came to 14.2%.
With `Cc1nc(C)n(C2CCCN(C(=O)CCOCC(C)C)C2)n1` (centres undefined) the figure was 11%.
On to `Cc1nc(CN2CCCC(NCc3ccc4ccccc4c3)C2)no1` (centres undefined), for which the cytotoxicity at 70.5 h was -6.48%.
Consider `CCc1nc(C2CCCN2CC(=O)Nc2cc(C)no2)no1` (centres undefined), for which the cytotoxicity at 70.5 h was -5.2%.
As for `Cc1n[nH]c(C)c1NC(=O)CN1CCCC1c1noc(C2CC2)n1` (centres undefined), the cytotoxicity at 70.5 h is -18.5%.
As to `Cc1nc(C)n(C2CCCN(C(=O)CCCc3ccccn3)C2)n1` (centres undefined), the cytotoxicity at 70.5 h was -7.71%.
For the molecule `Cc1cc(CN2CCCC2c2noc(C(C)C)n2)on1` (centres undefined), the cytotoxicity at 70.5 h is -15.4%.
Turning to `CC(C)c1nc(C2CCCN2Cc2ccon2)no1` (centres undefined), the cytotoxicity at 70.5 h was -10.9%.
The result for `CCc1nc(C2CCCN2CC(=O)Nc2cc(C)on2)no1` (centres undefined) reads -6.96%; that for `CCc1nc(C2CCCN2Cc2ccno2)no1` (centres undefined), -14.3%.
Turning to `Cc1cccc(C(=O)NCc2ccccc2)n1`, the cytotoxicity at 70.5 h was -15.5%.
In the case of `Cc1noc(C(C)C)c1C(=O)NCc1cccnc1`, the cytotoxicity at 70.5 h was -16.6%.
With `CNS(=O)(=O)Cc1ccc(CNC(=O)c2ccccn2)cc1` the figure was -9.74%; with `CCNC(=O)C1CCN(Cn2nc(-c3ccc(F)cc3)oc2=O)CC1`, -13.2%; with `Cc1noc(C(C)C)c1C(=O)NCc1ccc2c(c1)OCCO2`, -5.36%.
`Cc1cccc(-c2nc(C)nn2CC(=O)NC(C)C2CC2)c1` (centres undefined): the cytotoxicity at 70.5 h was -5.76%.
For the molecule `Cc1nc(-c2ccccc2)n(CC(=O)NC2CCCC2)n1`, the cytotoxicity at 70.5 h is -13.6%.
Turning to `Cc1nc(CN2CCCC(NCc3cnn(C)c3)C2)no1` (centres undefined), the cytotoxicity at 70.5 h was -8.69%.
Turning to `CC1CN(C)CCN1C(=O)c1ccn(-c2cccc(F)c2)n1` (centres undefined), the cytotoxicity at 70.5 h was -15.8%.
The result for `Cc1nc(CN2CCCC(NCc3nc4ccccc4s3)C2)no1` (centres undefined) reads -17.4%; that for `CC1CN(C)CCN1C(=O)c1ccn(-c2ccc(F)cc2)n1` (centres undefined), -12.3%.
Turning to `Cc1cc(CN2CCN(c3ccc4nncn4n3)CC2)no1`, the cytotoxicity at 70.5 h was -11.5%.
For the molecule `Cc1nc(CN2CCCC(NCc3sccc3C)C2)no1` (centres undefined), the cytotoxicity at 70.5 h is -2.7%.
With `CN1CCN(C2CCN(CCCOc3ccc(F)cc3)CC2)C1=O` the figure was 19.6%.
Consider `CN1CCN(C2CCN(CCOc3ccccc3)CC2)C1=O`, for which the cytotoxicity at 70.5 h was -14.7%.
For the molecule `COc1c(C2CCCN2C(=O)c2csc(C3CC3)n2)c(C)nn1C` (centres undefined), the cytotoxicity at 70.5 h was 15.2%.
As to `CC(C)c1noc(CN2CCCC2c2noc(C(C)C)n2)n1` (centres undefined), the cytotoxicity at 70.5 h was -9.32%.
As for `COc1ccc(CNC(C)Cn2cccn2)cc1OC` (centres undefined), the cytotoxicity at 70.5 h turned out to be 1.53%.
`CCN1N=C(C(=O)N2CCCC(c3nc(C)c(C)s3)C2)CCC1=O` (centres undefined): the cytotoxicity at 70.5 h is -0.596%.
For the molecule `COc1ncc(C2(O)CCN(Cc3cccs3)CC2)c(OC)n1`, the cytotoxicity at 70.5 h is -8.54%.
